Experimental data published in the supplement of paper PMC10307832.

Experiments:
Assay in all cases: relative viability (nuclei count vs DMSO), 5 days (fraction); higher = more cells survive
[1] = compound: C1/C(=C\C2=CC=CS2)/C(=O)/C(=C/C3=CC=CS3)/C1 + C[C@]1(O)C[C@@H](c2nc(-c3ccc4ccc(-c5ccccc5)nc4c3)c3c(N)nccn32)C1 [Linsitinib] (partner 1 µM)
Method in brief: (§1)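 Each reported value is a median over duplicate plates. It expresses relative viability: treated-well nuclei count divided by vehicle-well nuclei count. Lung cancer cell lines in 1536-well plates were dosed by pin tool a day after seeding, alone with one drug or with a fixed anchor-drug dose plus five library-drug doses (not always all listed) in √10 steps, and nuclei were counted after 5 days.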

[2] = compound: C[C@]12O[C@H](C[C@]1(O)CO)n1c3ccccc3c3c4c(c5c6ccccc6n2c5c31)CNC4=O [Lestaurtinib] + Cc1cc(Nc2cc(N3CCN(C)CC3)nc(Sc3ccc(NC(=O)C4CC4)cc3)n2)n[nH]1 [Tozasertib] (partner 0.1 µM)
Method in brief: as §1

[3] = compound: C[C@]12O[C@H](C[C@]1(O)CO)n1c3ccccc3c3c4c(c5c6ccccc6n2c5c31)CNC4=O [Lestaurtinib] + C[C@]1(O)C[C@@H](c2nc(-c3ccc4ccc(-c5ccccc5)nc4c3)c3c(N)nccn32)C1 [Linsitinib] (partner 1 µM)
Method in brief: as §1

[4] = compound: C1/C(=C\C2=CC=CS2)/C(=O)/C(=C/C3=CC=CS3)/C1 + COc1cc2c(Oc3ccc(NC(=O)C4(C(=O)Nc5ccc(F)cc5)CC4)cc3F)ccnc2cc1OCCCN1CCOCC1 [Foretinib] (partner 0.25 µM)
Method in brief: as §1

| Cell Line | relative viability ([1]; first compound 0.2 µM) | relative viability ([1]; first compound 0.6325 µM) | relative viability ([1]; first compound 2 µM) | relative viability ([1]; first compound 6.325 µM) | relative viability ([1]; first compound 20 µM) | relative viability ([2]; first compound 0.005 µM) | relative viability ([2]; first compound 0.01581 µM) | relative viability ([2]; first compound 0.05 µM) | relative viability ([2]; first compound 0.1581 µM) | relative viability ([2]; first compound 0.5 µM) | relative viability ([3]; first compound 0.005 µM) | relative viability ([3]; first compound 0.01581 µM) | relative viability ([3]; first compound 0.05 µM) | relative viability ([3]; first compound 0.1581 µM) | relative viability ([3]; first compound 0.5 µM) | relative viability ([4]; first compound 0.2 µM) | relative viability ([4]; first compound 0.6325 µM) | relative viability ([4]; first compound 2 µM) | relative viability ([4]; first compound 6.325 µM) | relative viability ([4]; first compound 20 µM) |
| --- | --- | --- | --- | --- | --- | --- | --- | --- | --- | --- | --- | --- | --- | --- | --- | --- | --- | --- | --- | --- |
| HCC-44 | 0.633 | 0.748 | 0.693 | 0.592 | 0.655 | 0.882 | 1.08 | 0.996 | 1.48 | 0.354 | 0.597 | 0.725 | 0.577 | 0.88 | 0.366 | – | – | – | – | – |
| HCC-78 | 0.649 | 0.554 | 0.57 | 0.535 | 0.496 | 0.434 | 0.363 | 0.436 | 0.353 | 0.183 | 0.53 | 0.419 | 0.413 | 0.225 | 0.234 | 0.581 | 0.602 | 0.56 | 0.444 | 0.481 |
| HCC-366 | 0.701 | 0.574 | 0.647 | 0.467 | 0.6 | 0.174 | 0.126 | 0.142 | 0.0841 | 0.072 | 0.678 | 0.694 | 0.28 | 0.257 | 0.109 | 0.919 | 0.915 | 0.99 | 0.849 | 0.904 |
| HCC-827 | 1.05 | 0.953 | 0.923 | 0.929 | 0.903 | 0.492 | 0.405 | 0.396 | 0.348 | 0.217 | 0.913 | 0.996 | 0.87 | 0.857 | 0.762 | 1.04 | 0.939 | 1.02 | 0.96 | 1 |
| HOP-62 | 1.09 | 0.879 | 0.853 | 0.982 | 0.815 | 0.35 | 0.43 | 0.396 | 0.356 | 0.234 | 0.838 | 0.994 | 0.995 | 1.05 | 0.891 | 1.08 | 1.07 | 1.07 | 0.922 | 1.09 |
| IA-LM | 0.623 | 0.895 | 0.623 | 0.616 | 0.523 | – | – | – | – | – | 0.459 | 1.02 | 0.927 | 0.792 | 0.553 | 1.17 | 1.24 | 1.21 | 1.08 | 1.06 |
| LC-2-ad | 0.832 | 0.838 | 0.875 | 0.69 | 0.847 | 0.441 | 0.498 | 0.442 | 0.393 | 0.289 | 0.824 | 0.819 | 0.372 | 0.323 | 0.157 | 0.971 | 0.941 | 0.99 | 0.817 | 0.89 |
| LCLC-97TM1 | 0.183 | 0.169 | 0.187 | 0.158 | 0.197 | 0.317 | 0.177 | 0.0893 | 0.133 | 0.171 | 0.2 | 0.172 | 0.153 | 0.135 | 0.113 | 0.965 | 0.97 | 0.995 | 0.797 | 0.943 |
| LCLC-103H | 1.12 | 1.16 | 1.15 | 0.975 | 0.995 | 0.526 | 0.595 | 0.384 | 0.424 | 0.209 | 1.07 | 1.12 | 0.697 | 0.705 | 0.6 | 0.804 | 0.8 | 0.787 | 0.668 | 0.732 |
| LK-2 | 0.641 | 0.857 | 0.633 | 0.583 | 0.59 | 0.161 | 0.183 | 0.165 | 0.17 | 0.164 | 0.456 | 0.847 | 0.403 | 0.394 | 0.176 | 1.57 | 1.51 | 1.11 | 1.18 | 1.41 |
| LOU-NH91 | 1 | 0.898 | 1.03 | 0.806 | 1.02 | 0.61 | 0.602 | 0.628 | 0.496 | 0.295 | 0.912 | 0.887 | 0.773 | 0.603 | 0.45 | 0.953 | 0.921 | 0.919 | 0.827 | 0.944 |
| NCI-H522 | – | – | – | – | – | 0.571 | 0.536 | 0.627 | 0.528 | 0.496 | – | – | – | – | – | – | – | – | – | – |
| NCI-H1299 | 1.02 | 1.04 | 0.933 | 0.789 | 0.956 | – | – | – | – | – | 0.985 | 1.02 | 0.688 | 0.504 | 0.499 | 1.17 | 1.12 | 1.1 | 1.03 | 1.11 |
| NCI-H1563 | 1.43 | 1.16 | 1.28 | 0.893 | 1.08 | – | – | – | – | – | 1.25 | 1.17 | 1.16 | 1.22 | 0.736 | 0.952 | 1.1 | 0.968 | 0.895 | 0.93 |
| NCI-H1623 | – | – | – | – | – | 0.42 | 0.722 | 0.415 | 0.418 | 0.424 | – | – | – | – | – | 0.863 | 0.907 | 0.871 | 0.786 | 0.821 |
| NCI-H1648 | – | – | – | – | – | 0.377 | 0.649 | 0.391 | 0.487 | 0.49 | – | – | – | – | – | – | – | – | – | – |
| NCI-H1650 | – | – | – | – | – | 0.469 | 0.526 | 0.343 | 0.371 | 0.313 | – | – | – | – | – | 1.15 | 1.16 | 1.41 | 1.12 | 1.18 |
| NCI-H1703 | 1.42 | 0.978 | 0.633 | 0.887 | 0.725 | – | – | – | – | – | 0.513 | 0.508 | 0.562 | 0.164 | 0.149 | 0.381 | 0.451 | 0.33 | 0.257 | 0.337 |
| NCI-H1792 | 0.523 | 0.618 | 0.617 | – | 0.451 | – | – | – | – | – | 0.757 | 0.56 | 0.386 | 0.243 | 0.144 | – | – | – | – | – |
| NCI-H2170 | – | – | – | – | – | 0.72 | 0.848 | 0.696 | 0.45 | 0.219 | – | – | – | – | – | 1.02 | 0.99 | 1.02 | 0.887 | 1.03 |
| NCI-H2342 | – | – | – | – | – | 0.528 | 0.502 | 0.538 | 0.418 | 0.418 | – | – | – | – | – | 1.08 | 1.28 | 1.17 | 0.989 | 1.1 |
| SW 900 | – | – | – | – | – | 0.462 | 0.683 | 0.503 | 0.703 | 0.538 | – | – | – | – | – | 0.823 | 0.817 | 0.804 | 0.9 | 1.16 |
